From patent US7373256B2, “Method for the identification of molecules and biomarkers using chemical, biochemical and biological data” (priority 2005, dated 2008)
Values belong to the molecule of their own block, whether it stands above or below them.

Assays:
rats [1] = assay: Study 5: 1H/19F NMR correlation study of urine from rats dosed with 3-fluoroaniline; assay type: in vivo, rat; conditions: 50 mg/kg, negative covariance with 19F δ-128.4 resonance
Description: A number of rats were dosed with 3-fluoroaniline (3-FA) at 50 mg/kg. Urine samples were collected over dry ice (i) pre-dose, (ii) after 0-24 hours, and (iii) after 24-48 hours. ^1H NMR and ^1H-decoupled ^19F NMR spectra were collected. The collection of ^1H NMR spectra was treated as a first data set (i.e., a matrix with one row for each ^1H NMR spectrum, and one column for each ^1H NMR chemical shift variable, n x p) and the collection of ^19F-NMR spectra was treated as a second data set (i.e., a matrix with one row for each ^19F NMR spectrum, and one column for each ^19F NMR chemical shift variable, n×q). The correlation matrix and the covariance matrix (each p×q or q×p) were calculated.
This resonance was selected for the correlation study.
As mentioned above, the correlation matrix and the covariance matrix (each p×q or q×p) were calculated. The correlation between the selected variable (^19F δ-128.4) of the first data set and all of the variables of the second data set (i.e., the range of ^1H δ) is given in the column/row of the correlation matrix associated with this variable (i.e., the column/row for ^19F δ-128.4). The covariance between this variable (^19F δ-128.4) and all of the variables of the second data set (i.e., the range of ^1H δ) is given in the column/row of the covariance matrix associated with this variable (i.e., the column/row for ^19F δ-128.4). […]

rats [2] = conditions: hydrazine poisoning; stated as well known; cited from earlier work
rats [3] = assay: Study 7: 1H NMR / UPLC-MS correlation study of urine from rats dosed with hydrazine; assay type: in vivo, rat; conditions: hydrazine poisoning
Description: A number of rats were dosed with hydrazine. Urine samples were collected. ^1H NMR and mass spectra were recorded for each sample. (Note that the mass spectra were recorded using an UPLC-MS experiment, in which individual mass spectra are recorded as function of elution time, here over a period of six minutes with a water-acetonitrile gradient; however, for the present study, these spectra were “summed” in order to present a single mass spectrum for each sample. This gives, in effect, “virtual direct injection mass spectra.” This is a known approach for improving MS detection in complex mixtures.)
The collection of ^1H NMR spectra was treated as a first data set (i.e., a matrix with one row for each ^1H NMR spectrum, and one column for each ^1H NMR chemical shift variable, n×p) and the collection of mass spectra was treated as a second data set (i.e., a matrix with one row for each mass spectrum, and one column for each m/z variable, n×q). The correlation matrix and the covariance matrix (each p×q or q×p) were calculated. A correlation map illustrating a part of the correlation matrix, as a function of both ^1H chemical shift (from about δ 2 to about δ 4.5) and m/z (from about 100 to about 350), is shown in FIG. 21. The correlation is indicated by colour (blue is negative correlation and red is positive correlation). A “summed” ^1H NMR spectrum is shown alongside the ^1H δ axis for illustration. Similarly, a “summed” mass spectrum is shown alongside the m/z axis for illustration.
A correlation map illustrating another (very small) part of the correlation matrix is shown in FIG. 22, specifically for ^1H chemical shift from about δ 8.8 to about δ 9.3 and m/z from about 80 to about 200. Again, a “summed” ^1H NMR spectrum is shown alongside the ^1H δ axis for illustration. Similarly, a “summed” mass spectrum is shown alongside the m/z axis for illustration. […] As expected, the mass spectrum peak at m/z 138 (for NMNA) is highly correlated with the ^1H NMR peaks at about δ 9.12 about δ 8.84 (also for NMNA). […]

effect on endogenous hippurate level in urine (rats [1]): reduces the amount of hippurate
SMILES: Nc1cccc(F)c1 [3-fluoroaniline]

SMILES: NN [hydrazine]
change in N-methylnicotinamide (NMND) (rats [2]): increase
change in N-methylnicotinic acid (NMNA) (rats [2]): decrease
change in urinary creatine (rats [3]; m/z 90, 116): increased
change in urinary 2-aminoadipate (rats [3]; m/z 98, 116): increased
change in urinary hippurate (rats [3]; m/z 105, 180): decreased
